{
  "source": "patent US10280152B2",
  "about": "“Imaging of glycogen synthase kinase 3” (The General Hospital Corporation, priority 2015, dated 2019)",
  "key": {"GSK-3 [1]": {"tested_on": "GSK-3", "assay": "PET imaging in rhesus monkeys", "format": "in vivo", "conditions": "for brain penetration and specific binding (in words): PET imaging in animals / non-human primate brain", "method": "To determine the in vivo distribution and pharmacokinetic profile of compound (1) in higher species of nonhuman primates, compound (1) was radiolabelled with carbon-11 and the permeability of compound (1) was evaluated in the living brain using positron emission tomography. [^11C] labelled compound (1) was synthesized in 5% uncorrected radiochemical yield (relative to [^11C]CO2) by reaction of the corresponding phenolic precursor in the presence of tetrabutylammonium hydroxide in DMF with [^11C]CH3I with specific activity >2 Ci/μmol (n=15).\nBolus i.v. administration of [^11C]-labelled compound (1) in rhesus monkeys (5-7 mCi) reached a whole brain peak uptake (2 SUV) with fairly uniform brain distribution followed by a fast clearance (1 SUV at 40 min). […] Liang et al., “Discovery of [^11C]PF-367 for neuroimaging of glycogen synthase kinase 3”, J. Nucl. Med., 2015, 56(Supp. 3), 491."}, "[2]": {"assay": "Determination of Log D7.4 (1-octanol/PBS shake flask, gamma counting)", "format": "physicochemical", "conditions": "1-octanol / PBS buffer pH 7.4, n=7", "method": "The measurement of lipophilicity was carried out using literature procedure. Purified and reformulated [^11C] labelled compound (1) (˜50 μL) was added to a separating funnel containing PBS buffer (pH 7.4) and 1-octanol (pre-saturated with PBS buffer) (˜20 mL each). The octanol layer was collected and dispensed into 8 centrifuge tubes (2 mL each) containing PBS buffer (2 mL each). The tubes were mixed by vortex for 2 min and then centrifuged for 5 min. Approximately 0.5 mL of the octanol layer and 1.0 mL of the aqueous from each centrifuge tube was then transferred to pre-weighed test tubes (16 in total). The tubes were capped and assayed using an automated gamma counter. The tubes were then uncapped and weighed to determine the total volume of the liquid in each. The log D7.4 of [^11C] labelled compound (1) was determined to be 2.14 (n=7)."}, "GSK-3 [3]": {"tested_on": "GSK-3", "assay": "PET imaging in rat", "format": "in vivo", "conditions": "rat (n=1), bolus i.v., at 1-2 min"}, "[4]": {"tested_on": "other structurally similar kinases", "conditions": "cited from earlier work"}, "GSK-3 [5]": {"tested_on": "GSK-3", "conditions": "literature radiotracers; SB-216763 in rodents and non-human primates; cited from earlier work"}},
  "data": [
    {"smiles": "[11CH3]Oc1ccc(-c2ocnc2C(=O)NCCCn2cncn2)cc1Cl", "note": "[compound (2), N-(3-(1H-1,2,4-Triazol-1-yl)propyl)-5-(3-chloro-4-[^11C]methoxyphenyl)oxazole-4-carboxamide]", "values": [
      {"measurement": "brain penetration and specific binding (in words)", "setting": "GSK-3 [1]; listed as 11C-isotopologue of compound (1)", "result": "high brain permeability and specificity"},
      {"measurement": "brain penetration and specific binding (in words)", "setting": "GSK-3 [1]; listed as [^11C] labelled compound (1)", "result": "confirmed brain penetration and displaceable specific binding"},
      {"measurement": "whole brain peak uptake", "setting": "GSK-3 [1]; rhesus monkeys, bolus i.v., 5-7 mCi, baseline", "result": 2, "unit": "SUV"},
      {"measurement": "brain uptake at 40 min (clearance)", "setting": "GSK-3 [1]; rhesus monkeys, bolus i.v., baseline, 40 min", "result": 1, "unit": "SUV"},
      {"measurement": "peak uptake", "setting": "GSK-3 [1]; rhesus monkeys, co-administration with unlabelled compound (1) 0.1 mg/kg", "result": 3.5, "unit": "SUV"},
      {"measurement": "binding at 40 min in all brain regions", "setting": "GSK-3 [1]; rhesus monkeys, co-administration with unlabelled compound (1) 0.1 mg/kg, 40 min", "result": 0.3, "unit": "SUV"},
      {"measurement": "logD", "setting": "[2]", "result": 2.14},
      {"measurement": "maximum uptake", "setting": "GSK-3 [3]", "result": "about 1 SUV"}
    ]},
    {"smiles": "[11CH3]n1cc(C2=C(c3ccc(Cl)cc3Cl)C(=O)NC2=O)c2ccccc21", "note": "[[^11C]SB-216763]", "values": [
      {"measurement": "selectivity against other structurally similar kinases (in words)", "setting": "[4]", "result": "not selective"},
      {"measurement": "brain uptake in vivo (in words)", "setting": "GSK-3 [5]", "result": "good brain uptake"}
    ]}
  ]
}
